# Where “and” joins values, the source holds several entries; their conditions need not be identical. Identical values can stand only once. Like-named read-outs stand apart in the source and are kept apart here.
# What was measured:
# [1] = tested on: Staphylococcus epidermidis; conditions: for time to dark activity: daylight / laboratory light series; for time to activity in the dark: intense light series; for time to activity on illumination: intense light
# Experimental: (§1) Studies were performed on the photosensitising activity of porphyrin solutions against Staphylococcus epidermidis, Pseudomonas aeruginosa and Proteus mirabilis as these organisms have been isolated from culture-positive cases of infectious endophthalmitis. Studies were performed by adding a porphyrin solution to a culture of the test organism, exposing this mixture to daylight or to a more intense light source comprising 4×250 W halogen bulbs, and then taking a 1 mL aliquot at certain times to determine the viable count.
# (§2) 10 mcg/mL solutions of the three porphyrins were investigated. Initially the solutions were made up at the desired concentration and then double filter sterilised.
# (§3) Inocula of approximately 1×10^5 cfu/mL were utilised throughout the microbiological studies of porphyrin solutions. Activity was examined both in normal daylight conditions and using a more intense light source comprising 4×250 W halogen bulbs, cooling the temperature to around 32° C.
# (§4) Unfiltered and double filter sterilised 10 mcg/mL solutions were used to examine the effect of double filtration on activity.
# Pseudomonas aeruginosa = conditions: for dark activity: intense light series, dark control; for time to activity in light: intense light
# Experimental: as §1, §2, §3, §4
# Proteus mirabilis = conditions: for reduction in viable count: more intense light; for reduction in growth / viable count: 24 hour study, after 24 hours
# Experimental: as §1, §2, §3, §4
# [2] = D2O, single exponential decay following the rapid component
# Source text: The ^1O2 detection system was a liquid-nitrogen-cooled Indium Gallium Arsenide (InGaAs) detector (Judson Technologies Inc, Montgomeryville, Pa., type J22D-M204-R01M-60-1.7) with a 1 mm^2 active area. The detector output was amplified using a Judson PA9 pre-amplifier and collected using a Tektronix TDS 3032 oscilloscope. To obtain acceptable signal-to-noise ratios 512 decays were summed for each reading. To minimise the effect of any inhomogeneity in the sample, readings from 8 different points were averaged, The singlet oxygen emission at 1270 nm was separated from the 1064 nm fundamental laser emission and other spurious emissions by use of a 1200 nm long pass filter (LP1200) and a 1292 nm band pass filter (BPO-1292-80), both supplied by Spectrogon UK Ltd.
# Using this approach, the polymers prepared were pre-wetted in buffer prepared with D2O and dipped in porphyrin solutions also prepared from D2O.
# [3] = Transient absorbance (triplet lifetime) measurements; assay type: physicochemical
# Experimental: For the transient absorption and singlet oxygen studies, the second harmonic output from a Q-switched Nd:YAG laser was used as the excitation source and the sample was mounted at […] to the excitation beam. A pulse energy of 1 mJ was used for the measurements to avoid burning the sample. For transient absorption measurements, light from a xenon arc lamp (Applied Photophysics Ltd., 150 W) traveling at 90° to the excitation beam was directed through the sample and into a monochromator (Applied Photophysics Ltd., 1200 gr/mm grating.) fitted with an IP28 photomultiplier detector connected to a sampling oscilloscope (Tektronix TDS 3032). A 532 nm holographic notch filter (Kaiser Optical Systems Inc.) was mounted in front of the monoochromator entrance slit to reduce the effect of laser scatter on the signal. Processing of the data was carried out using SigmaPlot for Windows (Version 8.0).
# Transient absorbance difference (ΔA) measurements were carried out under oxygen-bubbled conditions and after degassing by nitrogen-bubbling for 20 minutes. […] However, N2 bubbling was used in the present studies as freeze-pump-thaw was inappropriate for the polymer samples.
# [4] = in solution; cited from earlier work
# [5] = one hour study, filtered solution
# [6] = one hour study, daylight / laboratory light, unfiltered solution
# [7] = one hour study, unfiltered solution
# [8] = one hour study, double filter sterilised solution
# [9] = one hour study, unfiltered 10 mcg/mL solution
smiles,measurement,setting,value
"C[N+](C)(C)c1ccc(-c2c3nc(c(-c4ccc([N+](C)(C)C)cc4)c4ccc([nH]4)c(-c4ccc([N+](C)(C)C)cc4)c4nc(c(-c5ccc([N+](C)(C)C)cc5)c5ccc2[nH]5)C=C4)C=C3)cc1.[Cl-].[Cl-].[Cl-].[Cl-] [TMAP, tetra(4N,N,N-trimethyl-anilinium)porphine tetrachloride]",time to dark activity,[1]; [5],not active in the dark
same,time to activity (no growth) in light,[1]; [6],≤ 10 min
same,time to dark activity (no growth in dark control),"[1]; one hour study, daylight series, unfiltered solution, dark control",≤ 10 min
same,time to activity in the dark,[1]; [5],≤ 10 min
same,time to activity in the dark,[1]; [7],≤ 10 min
same,time to activity on illumination,[1]; [5],≤ 10 min
same,time to activity on illumination,[1]; [7],≤ 10 min
same,reduction of growth,"Pseudomonas aeruginosa; 24 hour study, daylight, at 24 hours",1 log cycle
same,activity,"Pseudomonas aeruginosa; one hour study, daylight",no activity
same,dark activity,Pseudomonas aeruginosa; one hour study,some limited dark activity
same,time to activity in light,Pseudomonas aeruginosa; [8],≤ 30 min
same,time to activity in light,Pseudomonas aeruginosa; [9],≤ 30 min
same,reduction in viable count,Proteus mirabilis; in 3 hours,three log cycle reduction
same,activity,"Proteus mirabilis; one hour study, daylight",no activity
"C[n+]1ccc(-c2c3nc(c(-c4cc[n+](C)cc4)c4ccc([nH]4)c(-c4cc[n+](C)cc4)c4nc(c(-c5cc[n+](C)cc5)c5ccc2[nH]5)C=C4)C=C3)cc1.Cc1ccc(S(=O)(=O)[O-])cc1.Cc1ccc(S(=O)(=O)[O-])cc1.Cc1ccc(S(=O)(=O)[O-])cc1.Cc1ccc(S(=O)(=O)[O-])cc1 [TMPyP, tetra(4N-methylpyridyl)porphine tetratosylate salt]",1O2 emission decay lifetime,[2],62 μs
same,time to dark activity,[1]; [5],≤ 30 min
same,time to activity in light,"[1]; one hour study, daylight / laboratory light, filtered solution",≤ 10 min
same,time to activity (no growth) in light,[1]; [6],≤ 10 min
same,time to activity in the dark,[1]; [5],20 min
same,time to activity in the dark,[1]; [7],10 min
same,time to activity on illumination,[1]; [5],≤ 10 min
same,time to activity on illumination,[1]; [7],≤ 10 min
same,τ1/μs,[3]; N2 bubbled,161 μs and 161.0 ± 4.51 μs
same,τ1/μs,[3]; O2 bubbled,0.436 ± 0.00062 μs
same,"triplet lifetime, solution phase",[3]; under O2,436 ns
same,photosensitising activity,"Pseudomonas aeruginosa; 24 hour study, daylight, 10 mcg/mL solution, inoculum ca. 1×10^5 cfu/mL",no photosensitising activity
same,dark activity,Pseudomonas aeruginosa; one hour study,not active in the dark
same,time to activity in light,Pseudomonas aeruginosa; [8],≤ 40 min
same,time to activity in light,Pseudomonas aeruginosa; [9],≤ 40 min
same,reduction in growth / viable count,Proteus mirabilis; daylight,1 log cycle
same,reduction in viable count,Proteus mirabilis; by 5 hours,three log cycle reduction
"Cl.Cl.O=S(=O)(O)c1ccc(-c2c3nc(c(-c4ccc(S(=O)(=O)O)cc4)c4ccc([nH]4)c(-c4ccc(S(=O)(=O)O)cc4)c4nc(c(-c5ccc(S(=O)(=O)O)cc5)c5ccc2[nH]5)C=C4)C=C3)cc1 [TPPS, tetra(4-sulfonatophenyl)-porphine dihydrochloride]","time to successful photoinactivation, complete kill","[1]; 24 hour study, daylight",24 h
same,time to activity on illumination,[1]; [5],≤ 50 min
same,time to activity on illumination,[1]; [7],≤ 40 min
same,φ(1O2),[4],0.6717
same,τ1/μs,[3]; N2 bubbled,227.5 ± 6.1 μs
same,τ1/μs,[3]; O2 bubbled,0.760 ± 0.0023 μs
same,reduction in the viable count,"Pseudomonas aeruginosa; more intense source, by 5 hours illumination",one log cycle reduction
same,reduction in growth / viable count,Proteus mirabilis; daylight,no reduction in viable count
same,reduction in viable count,Proteus mirabilis; by 5 hours,did not show any photosensitising effect
